The record followed here is ChEMBL document CHEMBL3808327, “Natural Products as Sources of New Drugs from 1981 to 2014” (J Nat Prod, 2016).

In the assay the target is Serine/threonine-protein kinase B-raf (Homo sapiens, UniProt P15056, V600E). Nature of the assay: Inhibition of N-terminal his-tagged BRAF V600E mutant (448 to 723 residues) (unknown origin) expressed in Escherichia coli BL21(DE3) cells assessed as phosphorylation of biotinylated-MEK by AlphaScreen assay. A general note: Bead proximity is the source of the signal in Alpha formats.
Serine/threonine-protein kinase B-raf, sequence (P15056 2-766 V600E limits assumed): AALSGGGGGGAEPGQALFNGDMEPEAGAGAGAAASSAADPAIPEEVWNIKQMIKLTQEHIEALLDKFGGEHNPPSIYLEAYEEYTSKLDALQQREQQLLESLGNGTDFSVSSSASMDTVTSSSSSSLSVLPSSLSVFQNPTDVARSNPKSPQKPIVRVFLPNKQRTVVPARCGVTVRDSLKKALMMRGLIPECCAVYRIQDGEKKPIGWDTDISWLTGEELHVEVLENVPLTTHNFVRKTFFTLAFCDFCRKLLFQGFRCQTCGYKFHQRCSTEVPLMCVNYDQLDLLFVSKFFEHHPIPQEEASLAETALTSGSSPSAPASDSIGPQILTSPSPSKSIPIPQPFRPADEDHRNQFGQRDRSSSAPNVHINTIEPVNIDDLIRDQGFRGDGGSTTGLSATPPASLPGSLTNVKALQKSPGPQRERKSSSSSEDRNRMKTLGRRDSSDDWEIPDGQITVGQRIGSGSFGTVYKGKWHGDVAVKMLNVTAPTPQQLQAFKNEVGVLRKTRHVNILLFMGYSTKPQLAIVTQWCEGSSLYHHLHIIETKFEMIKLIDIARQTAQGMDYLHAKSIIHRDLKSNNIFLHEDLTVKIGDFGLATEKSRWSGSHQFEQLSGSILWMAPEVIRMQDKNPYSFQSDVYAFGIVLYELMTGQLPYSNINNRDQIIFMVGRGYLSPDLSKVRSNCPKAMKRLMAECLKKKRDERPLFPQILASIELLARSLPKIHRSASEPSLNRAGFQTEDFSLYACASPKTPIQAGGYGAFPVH

For `c1ccc(Nc2c[nH]c3ncccc23)cc1`, the concentration for half-maximal inhibition (IC50) is above 100 µM.

The IC50 is the point on the concentration scale where inhibition reaches its midpoint.
